In ChEMBL document CHEMBL1201862, “PubChem BioAssay data set” (2004):
Calls of active or inactive are those of the source.

Key:
[1] = biological target: T1, Carboxy-terminal domain RNA polymerase II polypeptide A small phosphatase 1 (Homo sapiens, UniProt Q9GZU7); experiment: CTDSP1 inhibitors, concentration-response, biochemical, absorbance readout, ultra-high-throughput screen actives (AID 540297); assay type: functional
T1 sequence (Q9GZU7 whole entry): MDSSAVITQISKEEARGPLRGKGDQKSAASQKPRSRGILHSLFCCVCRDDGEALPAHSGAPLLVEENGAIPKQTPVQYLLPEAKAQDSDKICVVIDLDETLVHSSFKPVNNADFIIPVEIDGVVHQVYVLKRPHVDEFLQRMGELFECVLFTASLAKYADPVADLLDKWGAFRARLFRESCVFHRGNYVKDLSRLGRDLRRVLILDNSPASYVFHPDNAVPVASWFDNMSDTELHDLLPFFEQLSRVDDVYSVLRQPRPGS

[2] = biological target: Nonstructural protein 1 (Influenza A virus, UniProt Q194T2); assay type: functional, Influenza A virus (A/California/07/2009(H1N1))
[3] = biological target: Aminopeptidase N (Plasmodium falciparum FcB1/Columbia, UniProt O96935); experiment: malaria alanyl aminopeptidase activity blockers – biochemical, fluorogenic H-Leu-NHMec substrate, 1536-well (AID 1445); design: species or system Plasmodium falciparum 3D7, 3D7
[4] = biological target: Polyadenylate-binding protein 1 (Homo sapiens, UniProt P11940); experiment: blockers of PABP interaction with poly(A) – biochemical, fluorescence polarization, […] (AID 2014)
[5] = biological target: Eukaryotic translation initiation factor 4H (Homo sapiens, UniProt Q15056); experiment: eIF4H binding inhibition – biochemical, uHTS, fluorescence polarization, translation initiation inhibitor project, primary screen (AID 2012)
[6] = biological target: Cytochrome P450 3A4 (Homo sapiens, UniProt P08684); conditions: Potency;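 also: confirmatory qHTS run detecting inhibitors and substrates of CYP3A4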
[7] = biological target: Cytochrome P450 2C9 (Homo sapiens, UniProt P11712); conditions: Potency
[8] = biological target: Procathepsin L (Homo sapiens, UniProt P07711)
[9] = biological target: Aspartyl aminopeptidase (Plasmodium falciparum 3D7, UniProt Q8I2J3)
[10] = fluconazole-exposed Candida albicans growth modulators – fluorescence, retest, confirmation (AID 2467); assay type: functional, cell-based
[11] = NIH-3T3 fibroblast cytotoxicity, dose response, cytotoxicity control, cell-based, fluorescence, Alamar Blue, secondary assay (AID 2327); assay type: functional;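 also: NIH-3T3 mouse fibroblasts cultured with fluconazole at 8 µg/mL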
[12] = biological target: ATP-dependent molecular chaperone HSP82 (Candida albicans (strain WO-1) (Yeast), UniProt C4YTQ8); experiment: steroid-induced GRE reporter decrease in yeast – S. cerevisiae, luminescence, Hsp90 inhibitor project, dose response (AID 2400); assay type: functional, cell-based;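 also: beta-galactosidase luminescence from glucocorticoid response element reporter as proxy for Hsp90 function; inhibitor potency where signal loss means Hsp90 inhibition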
[13] = biological target: T2, Serine/threonine-protein phosphatase (Candida dubliniensis (strain CD36 / CBS 7987 / NCPF 3949 / NRRLY-17841) (Yeast), UniProt B9W6M3); experiment: blockers of CaCl2-induced CDRE-lacZ signaling – S. cerevisiae, luminescence, secondary, dose response (AID 2388); assay type: functional, cell-based;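 also: yeast reporter cells carrying a calcineurin-responsive lacZ construct stimulated with calcium chloride; luminescent beta-galactosidase reporter signal in whole cells rather than isolated phosphatase activity; potency for inhibition where a drop in reporter signal means calcineurin blockade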
T2 sequence (B9W6M3 whole entry): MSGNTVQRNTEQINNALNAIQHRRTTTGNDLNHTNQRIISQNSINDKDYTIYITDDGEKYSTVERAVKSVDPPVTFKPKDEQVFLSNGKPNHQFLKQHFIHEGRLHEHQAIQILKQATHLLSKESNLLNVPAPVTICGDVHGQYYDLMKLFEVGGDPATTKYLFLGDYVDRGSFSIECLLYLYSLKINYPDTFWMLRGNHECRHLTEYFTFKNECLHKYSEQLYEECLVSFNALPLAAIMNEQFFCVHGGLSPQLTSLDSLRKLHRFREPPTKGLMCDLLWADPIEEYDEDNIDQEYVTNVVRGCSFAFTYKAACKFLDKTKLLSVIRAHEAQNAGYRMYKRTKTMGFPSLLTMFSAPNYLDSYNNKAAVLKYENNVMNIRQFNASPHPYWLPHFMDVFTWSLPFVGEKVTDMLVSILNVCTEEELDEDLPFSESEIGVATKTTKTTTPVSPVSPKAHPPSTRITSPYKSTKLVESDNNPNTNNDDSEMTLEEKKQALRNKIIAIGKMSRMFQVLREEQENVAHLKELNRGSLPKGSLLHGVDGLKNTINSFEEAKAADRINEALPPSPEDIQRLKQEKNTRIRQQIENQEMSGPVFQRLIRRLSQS

[14] = biological target: T3, Alkaline phosphatase, tissue-nonspecific isozyme (Homo sapiens, UniProt P05186)
T3 sequence (P05186 whole entry): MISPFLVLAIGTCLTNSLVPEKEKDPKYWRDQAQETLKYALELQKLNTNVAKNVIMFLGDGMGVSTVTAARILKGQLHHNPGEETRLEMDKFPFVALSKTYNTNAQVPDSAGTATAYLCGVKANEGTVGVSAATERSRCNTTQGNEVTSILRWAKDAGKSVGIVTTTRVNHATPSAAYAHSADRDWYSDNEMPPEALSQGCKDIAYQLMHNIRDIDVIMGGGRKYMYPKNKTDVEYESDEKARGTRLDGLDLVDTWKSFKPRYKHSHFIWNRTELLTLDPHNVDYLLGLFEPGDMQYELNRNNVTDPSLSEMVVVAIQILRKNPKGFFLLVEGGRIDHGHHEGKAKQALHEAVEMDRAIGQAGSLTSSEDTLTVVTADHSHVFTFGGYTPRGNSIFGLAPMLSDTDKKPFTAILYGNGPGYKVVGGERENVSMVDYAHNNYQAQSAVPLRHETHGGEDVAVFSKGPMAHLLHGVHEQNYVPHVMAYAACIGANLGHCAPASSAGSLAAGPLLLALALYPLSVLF

[15] = biological target: Lysosomal acid glucosylceramidase (Homo sapiens, UniProt P04062); experiment: Dose response cell-based high throughput screening assay to identify enhancers of beta-glucosidase activity. [Related pubchem assays: 784 ]; assay type: functional
[16] = biological target: Ion channel NompC (Danio rerio, UniProt Q7T1G6); experiment: Fluorescence counterscreen assay for TRPML3 agonists: dose response cell-based high-throughput screening assay to identify agonists of the transient receptor potential channel N1 (TRPN1). [Related pubchem assays: 1526, 1424, 1448 ]; assay type: functional
[17] = biological target: T4, Mucolipin-3 (Homo sapiens, UniProt Q8TDD5); experiment: Dose response cell-based high-throughput screening assay for agonists of the transient receptor potential channel ML3 (TRPML3). [Related pubchem assays: 1526, 1424, 1448 ]; assay type: functional
T4 sequence (Q8TDD5 whole entry): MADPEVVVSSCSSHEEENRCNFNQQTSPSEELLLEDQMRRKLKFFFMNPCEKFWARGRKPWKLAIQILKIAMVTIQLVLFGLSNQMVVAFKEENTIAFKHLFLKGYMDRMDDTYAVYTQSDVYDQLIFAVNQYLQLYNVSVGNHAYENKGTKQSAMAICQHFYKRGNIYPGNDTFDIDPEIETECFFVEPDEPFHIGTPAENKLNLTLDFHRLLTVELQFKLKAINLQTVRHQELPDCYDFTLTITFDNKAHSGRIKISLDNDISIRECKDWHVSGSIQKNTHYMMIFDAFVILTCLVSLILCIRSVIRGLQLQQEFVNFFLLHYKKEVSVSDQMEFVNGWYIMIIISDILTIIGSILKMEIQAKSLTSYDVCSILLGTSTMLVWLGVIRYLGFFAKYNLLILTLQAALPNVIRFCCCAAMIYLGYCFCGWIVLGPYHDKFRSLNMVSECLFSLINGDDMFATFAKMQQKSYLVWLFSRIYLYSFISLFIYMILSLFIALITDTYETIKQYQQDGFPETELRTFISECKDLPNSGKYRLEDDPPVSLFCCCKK

[18] = A cytotoxicity screen of small molecule inhibitors of the PhoP region in Salmonella typhi identified in the primary screen. [Related pubchem assays: 1850, 1864, 1985 ]; assay type: functional
[19] = biological target: Cytochrome P450 2D6 (Homo sapiens, UniProt P10635); experiment: qHTS Assay for Inhibitors and Substrates of Cytochrome P450 2D6. [Related pubchem assays: 410 ]; assay type: ADME; conditions: read-out: Potency
[20] = NIH3T3 cell viability loss – ATP luminescence, mouse fibroblasts, counter-screen, dose response (AID 2010); assay type: functional, cell-based;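 also: cells exposed to compound for about 90 hours before reading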
[21] = biological target: Sphingosine 1-phosphate receptor 1 (Homo sapiens, UniProt P21453); assay type: functional;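 also: Tango beta-arrestin reporter U2OS cells stimulated with S1P near its EC80; inhibitor potency meaning antagonism of receptor activation by the natural agonist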
[22] = viability of PTEN-deleted HCT116 cells – cell-based, HCT116 PTEN knockout, dose response (AID 1047); assay type: functional;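 also: HCT116 colon tumor cells with PTEN knocked out; cells exposed to compound for 60 hours before readout; potency for loss of cell viability measured by luminescence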
[23] = biological target: G-protein coupled receptor 35 (Homo sapiens, UniProt Q9HC97); experiment: inhibition of zaprinast-stimulated GPR35 beta-arrestin translocation – imaging, U2OS, beta-arrestin-GFP, zaprinast agonist, primary screen (AID 2058); assay type: functional;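 also: antagonist potency meaning inhibition of agonist-induced arrestin redistribution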
[24] = Trypanosoma cruzi growth suppression in host cells – NIH3T3 host cells, beta-gal luminescence, confirmation (AID 2044); assay type: functional, cell-based;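 also: intracellular parasites grown in NIH/3T3 mouse fibroblasts as host cells; luminescent beta-galactosidase reporter signal from transgenic T. cruzi replicating inside host cells; inhibitors lower the luminescence signal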
[25] = viability of HCT116 lacking mutant beta-catenin – cell-based, human colon tumor, dose response (AID 1045); assay type: functional;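 also: HCT116 colon tumor cells with beta catenin knocked out; cells exposed to compound for 60 hours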
[26] = biological target: T5, Sphingosine 1-phosphate receptor 4 (Homo sapiens, UniProt O95977); experiment: Fluorescence dose response cell-based high throughput screening assay for antagonists of the Sphingosine 1-Phosphate Receptor 4 (S1P4). [Related pubchem assays: 1524 (Confirmation in triplicates.), 1510 (Primary screen.)]; assay type: functional
T5 sequence (O95977 whole entry): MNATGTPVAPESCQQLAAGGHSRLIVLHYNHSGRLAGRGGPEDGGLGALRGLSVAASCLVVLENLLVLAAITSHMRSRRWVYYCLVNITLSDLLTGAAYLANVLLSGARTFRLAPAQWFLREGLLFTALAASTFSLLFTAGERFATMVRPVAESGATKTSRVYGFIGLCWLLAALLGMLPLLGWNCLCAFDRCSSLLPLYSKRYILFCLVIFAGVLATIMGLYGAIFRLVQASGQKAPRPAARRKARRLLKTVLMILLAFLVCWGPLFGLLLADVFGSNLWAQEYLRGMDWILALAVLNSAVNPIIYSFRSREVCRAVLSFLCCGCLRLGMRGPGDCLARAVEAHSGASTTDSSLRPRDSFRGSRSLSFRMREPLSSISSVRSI

[27] = biological target: Voltage-dependent T-type calcium channel subunit alpha-1H (Homo sapiens, UniProt O95180); assay type: functional;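 also: channel activity triggered by adding a high calcium stimulation buffer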
[28] = test system: Escherichia coli; experiment: microbe, parasite or virus in culture
[29] = biological target: Melanin-concentrating hormone receptor 1 (Homo sapiens, UniProt Q99705); experiment: Fluorescence-based counterscreen for antagonists of the G-protein coupled receptor 7 (GPR7): cell-based high throughput dose response assay to identify antagonists of the melanin-concentrating hormone receptor 1 (MCHR1).; assay type: functional
[30] = biological target: T6, Mannose-6-phosphate isomerase (Homo sapiens, UniProt P34949); experiment: MPI inhibition at elevated mannose 6-phosphate – biochemical, fluorescence intensity, high mannose 6-phosphate, primary screen (AID 1220)
T6 sequence (P34949 whole entry): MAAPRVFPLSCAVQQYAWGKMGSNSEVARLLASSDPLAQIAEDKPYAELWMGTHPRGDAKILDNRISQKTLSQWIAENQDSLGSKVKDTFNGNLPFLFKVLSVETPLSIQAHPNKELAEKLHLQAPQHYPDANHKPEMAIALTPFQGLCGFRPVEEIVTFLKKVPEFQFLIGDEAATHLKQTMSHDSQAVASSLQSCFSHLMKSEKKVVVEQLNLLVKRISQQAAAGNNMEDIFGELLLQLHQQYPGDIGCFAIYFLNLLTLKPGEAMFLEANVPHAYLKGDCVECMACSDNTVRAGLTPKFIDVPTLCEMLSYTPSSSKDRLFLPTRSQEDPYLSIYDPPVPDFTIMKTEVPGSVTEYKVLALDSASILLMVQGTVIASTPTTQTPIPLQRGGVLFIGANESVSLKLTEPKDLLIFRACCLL

Sequence of Aspartyl aminopeptidase (Q8I2J3 whole entry): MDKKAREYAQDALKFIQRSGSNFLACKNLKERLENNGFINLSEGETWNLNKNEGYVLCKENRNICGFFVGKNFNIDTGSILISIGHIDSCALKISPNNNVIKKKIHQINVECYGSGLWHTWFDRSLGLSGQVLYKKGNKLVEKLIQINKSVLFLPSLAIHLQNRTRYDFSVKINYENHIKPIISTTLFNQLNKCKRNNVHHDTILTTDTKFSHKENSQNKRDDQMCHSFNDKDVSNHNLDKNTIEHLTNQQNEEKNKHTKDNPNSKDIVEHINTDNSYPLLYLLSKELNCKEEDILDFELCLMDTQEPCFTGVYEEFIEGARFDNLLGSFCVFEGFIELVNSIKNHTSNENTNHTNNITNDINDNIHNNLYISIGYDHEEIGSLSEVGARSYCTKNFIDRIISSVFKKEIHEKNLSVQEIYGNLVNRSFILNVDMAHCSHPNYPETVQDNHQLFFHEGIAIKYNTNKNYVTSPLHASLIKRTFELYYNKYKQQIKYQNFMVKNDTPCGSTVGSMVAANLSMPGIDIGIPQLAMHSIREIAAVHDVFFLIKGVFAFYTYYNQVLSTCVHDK
Sequence of Polyadenylate-binding protein 1 (P11940 whole entry): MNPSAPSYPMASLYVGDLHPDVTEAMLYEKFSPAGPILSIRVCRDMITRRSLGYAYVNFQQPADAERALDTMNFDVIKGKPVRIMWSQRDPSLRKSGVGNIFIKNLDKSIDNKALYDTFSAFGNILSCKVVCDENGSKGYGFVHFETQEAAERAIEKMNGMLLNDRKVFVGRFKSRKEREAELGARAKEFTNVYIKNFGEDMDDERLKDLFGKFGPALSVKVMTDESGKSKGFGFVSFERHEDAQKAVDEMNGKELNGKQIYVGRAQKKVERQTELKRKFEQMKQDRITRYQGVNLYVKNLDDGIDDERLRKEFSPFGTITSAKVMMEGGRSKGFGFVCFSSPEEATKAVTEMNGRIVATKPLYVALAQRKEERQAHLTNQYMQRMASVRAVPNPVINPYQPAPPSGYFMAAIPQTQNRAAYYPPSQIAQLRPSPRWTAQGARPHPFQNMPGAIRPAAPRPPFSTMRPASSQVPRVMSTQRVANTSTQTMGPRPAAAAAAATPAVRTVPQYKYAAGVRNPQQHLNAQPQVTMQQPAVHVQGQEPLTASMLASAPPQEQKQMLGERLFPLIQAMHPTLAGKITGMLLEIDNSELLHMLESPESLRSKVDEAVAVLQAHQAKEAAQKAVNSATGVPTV
Sequence of Ion channel NompC (Q7T1G6 whole entry): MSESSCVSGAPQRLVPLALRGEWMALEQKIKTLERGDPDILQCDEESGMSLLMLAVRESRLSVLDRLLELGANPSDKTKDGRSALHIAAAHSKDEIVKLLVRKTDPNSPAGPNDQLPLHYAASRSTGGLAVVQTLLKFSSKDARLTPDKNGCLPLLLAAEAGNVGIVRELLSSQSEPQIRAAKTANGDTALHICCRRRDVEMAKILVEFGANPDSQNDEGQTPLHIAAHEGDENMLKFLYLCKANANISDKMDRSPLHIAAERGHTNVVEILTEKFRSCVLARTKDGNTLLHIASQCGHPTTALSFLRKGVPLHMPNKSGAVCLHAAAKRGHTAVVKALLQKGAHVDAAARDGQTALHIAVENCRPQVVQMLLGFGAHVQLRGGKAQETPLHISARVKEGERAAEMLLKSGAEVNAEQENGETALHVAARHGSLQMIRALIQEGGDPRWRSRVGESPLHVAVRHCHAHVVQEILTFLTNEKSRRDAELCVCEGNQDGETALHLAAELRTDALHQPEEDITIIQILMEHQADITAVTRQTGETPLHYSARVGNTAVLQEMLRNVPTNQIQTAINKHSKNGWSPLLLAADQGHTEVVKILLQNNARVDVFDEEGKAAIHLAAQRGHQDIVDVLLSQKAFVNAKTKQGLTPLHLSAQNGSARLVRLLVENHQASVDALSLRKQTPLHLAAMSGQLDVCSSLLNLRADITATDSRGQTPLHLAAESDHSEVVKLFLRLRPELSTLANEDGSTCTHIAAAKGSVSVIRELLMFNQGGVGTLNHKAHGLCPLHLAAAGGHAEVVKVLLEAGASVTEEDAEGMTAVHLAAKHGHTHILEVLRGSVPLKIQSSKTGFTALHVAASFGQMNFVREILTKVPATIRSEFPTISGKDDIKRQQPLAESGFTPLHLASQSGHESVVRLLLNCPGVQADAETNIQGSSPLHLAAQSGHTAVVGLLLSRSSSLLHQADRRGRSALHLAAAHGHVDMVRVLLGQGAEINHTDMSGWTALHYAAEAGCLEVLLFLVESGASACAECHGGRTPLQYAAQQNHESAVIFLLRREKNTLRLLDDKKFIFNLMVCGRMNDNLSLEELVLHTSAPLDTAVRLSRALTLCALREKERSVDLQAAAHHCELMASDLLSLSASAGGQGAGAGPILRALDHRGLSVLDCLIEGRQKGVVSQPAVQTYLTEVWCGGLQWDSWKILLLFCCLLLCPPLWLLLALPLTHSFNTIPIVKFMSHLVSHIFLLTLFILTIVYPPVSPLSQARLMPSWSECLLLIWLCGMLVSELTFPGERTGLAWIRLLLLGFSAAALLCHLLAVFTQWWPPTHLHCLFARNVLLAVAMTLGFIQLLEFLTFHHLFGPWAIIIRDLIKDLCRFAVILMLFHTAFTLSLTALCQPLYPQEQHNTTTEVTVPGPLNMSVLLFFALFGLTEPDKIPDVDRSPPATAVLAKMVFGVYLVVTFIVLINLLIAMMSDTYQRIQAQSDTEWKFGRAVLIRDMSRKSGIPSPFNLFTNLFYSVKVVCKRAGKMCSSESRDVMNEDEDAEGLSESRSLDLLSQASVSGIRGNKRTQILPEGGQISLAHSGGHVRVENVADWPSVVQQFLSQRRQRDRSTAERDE
Sequence of Aminopeptidase N (O96935 whole entry): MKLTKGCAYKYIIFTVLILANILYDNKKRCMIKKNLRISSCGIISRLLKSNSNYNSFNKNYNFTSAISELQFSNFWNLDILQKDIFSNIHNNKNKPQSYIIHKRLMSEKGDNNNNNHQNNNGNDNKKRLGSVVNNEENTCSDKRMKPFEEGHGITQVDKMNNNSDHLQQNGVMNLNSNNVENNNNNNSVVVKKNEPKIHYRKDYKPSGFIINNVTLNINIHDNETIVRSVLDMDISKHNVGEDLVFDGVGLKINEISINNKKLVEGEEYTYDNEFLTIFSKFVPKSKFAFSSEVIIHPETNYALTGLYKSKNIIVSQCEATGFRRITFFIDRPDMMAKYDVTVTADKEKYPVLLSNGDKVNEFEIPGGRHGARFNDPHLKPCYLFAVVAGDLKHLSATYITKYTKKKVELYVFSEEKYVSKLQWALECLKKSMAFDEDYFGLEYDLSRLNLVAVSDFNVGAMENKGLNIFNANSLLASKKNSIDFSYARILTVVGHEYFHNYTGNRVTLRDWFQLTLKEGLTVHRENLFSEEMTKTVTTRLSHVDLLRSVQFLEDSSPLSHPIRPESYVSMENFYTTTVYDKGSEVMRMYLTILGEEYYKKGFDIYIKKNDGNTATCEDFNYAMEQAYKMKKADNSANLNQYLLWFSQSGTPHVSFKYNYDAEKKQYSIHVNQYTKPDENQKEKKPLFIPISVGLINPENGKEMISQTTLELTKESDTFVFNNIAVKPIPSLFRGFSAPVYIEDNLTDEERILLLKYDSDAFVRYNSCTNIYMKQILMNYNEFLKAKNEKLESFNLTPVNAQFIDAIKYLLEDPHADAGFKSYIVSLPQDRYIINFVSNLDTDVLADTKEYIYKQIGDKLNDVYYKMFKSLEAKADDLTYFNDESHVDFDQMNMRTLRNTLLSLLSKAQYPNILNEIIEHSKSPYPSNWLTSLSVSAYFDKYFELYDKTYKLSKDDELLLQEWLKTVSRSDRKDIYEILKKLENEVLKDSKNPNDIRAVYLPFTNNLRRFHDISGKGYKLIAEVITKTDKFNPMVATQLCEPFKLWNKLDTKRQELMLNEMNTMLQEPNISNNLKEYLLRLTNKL
Sequence of Cytochrome P450 3A4 (P08684 whole entry): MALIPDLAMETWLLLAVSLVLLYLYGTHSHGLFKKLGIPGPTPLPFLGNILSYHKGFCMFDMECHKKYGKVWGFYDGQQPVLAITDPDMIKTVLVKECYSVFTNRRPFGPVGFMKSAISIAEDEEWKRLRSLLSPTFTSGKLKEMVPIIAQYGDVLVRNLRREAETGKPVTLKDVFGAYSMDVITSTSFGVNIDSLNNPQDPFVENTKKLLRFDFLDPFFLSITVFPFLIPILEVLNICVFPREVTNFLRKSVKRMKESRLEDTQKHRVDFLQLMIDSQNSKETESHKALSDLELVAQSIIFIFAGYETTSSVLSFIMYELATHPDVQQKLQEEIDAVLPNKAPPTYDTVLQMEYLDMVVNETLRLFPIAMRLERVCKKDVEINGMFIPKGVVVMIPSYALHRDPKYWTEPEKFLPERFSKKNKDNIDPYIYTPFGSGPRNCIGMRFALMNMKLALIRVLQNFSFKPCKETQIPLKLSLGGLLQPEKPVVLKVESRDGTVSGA
Sequence of Lysosomal acid glucosylceramidase (P04062 whole entry): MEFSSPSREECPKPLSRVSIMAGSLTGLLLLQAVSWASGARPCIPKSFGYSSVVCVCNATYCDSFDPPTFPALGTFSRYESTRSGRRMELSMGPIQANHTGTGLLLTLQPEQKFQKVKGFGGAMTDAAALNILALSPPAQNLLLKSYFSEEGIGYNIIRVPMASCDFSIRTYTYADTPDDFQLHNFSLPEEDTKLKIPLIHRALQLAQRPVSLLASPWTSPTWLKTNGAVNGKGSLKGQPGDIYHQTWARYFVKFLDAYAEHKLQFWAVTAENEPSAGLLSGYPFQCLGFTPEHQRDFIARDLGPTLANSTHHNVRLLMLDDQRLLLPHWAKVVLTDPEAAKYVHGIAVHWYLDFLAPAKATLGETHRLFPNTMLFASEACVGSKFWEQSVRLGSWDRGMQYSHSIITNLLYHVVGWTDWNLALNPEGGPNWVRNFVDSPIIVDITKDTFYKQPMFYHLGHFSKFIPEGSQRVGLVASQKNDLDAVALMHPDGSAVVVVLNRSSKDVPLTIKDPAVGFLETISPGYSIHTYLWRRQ

O=C1Nn2c(nc3c(c2=O)CCC3)/C1=N/Nc1cccc(Cl)c1
IC50 [1]: 6.15 µM (active)
IC50 [2]: > 100 µM (active)
IC50 [3]: 83.9 µM (active)

CCn1c(SCC(=O)N/N=C/C=C\c2ccco2)nc2ccccc21
IC50 [4]: 68.8 µM (active)
IC50 [5]: 12.3 µM (active)

CCOC(=O)OCC1OC(C#Cc2ccc(Br)cc2)C=CC1OC(=O)OCC (configuration not stated)
AC50 [6]: 3.98 µM (inconclusive)
AC50 [7]: 2.51 µM (inconclusive)

O=c1[nH]c(CSc2nnc[nH]2)nc2ccccc12
IC50 [8]: > 59.6 µM (not active)
IC50 [9]: 0.833 µM (active)

CCn1c(O)c(N=NC(=O)c2cccs2)c2ccccc21
EC50 [10]: 1.09 µM (active)
EC50 [11]: 43.6 µM (active)
IC50 [3]: 70.2 µM (active)
EC50 [12]: 31.2 µM (active)
EC50 [13]: > 180 µM (inactive)

CCCCN1CC(=O)C(c2nc3ccccc3[nH]2)=C1N
EC50 [14]: > 100 µM (not active)

CCCCOc1nc2ccccc2nc1C(C#N)S(=O)(=O)c1ccccc1 (configuration not stated)
EC50 [15]: > 50 µM (not active)

COc1ccc(S(=O)(=O)N2CCCCCC2)cc1N(C)S(=O)(=O)c1ccc(C)cc1
EC50 [16]: > 29.9 µM (not active)
EC50 [17]: 6.7 µM (active)

O=C(/C=C(\O)c1ccccc1)C(=O)NNC(=O)c1ccccc1
EC50 [18]: > 50 µM (active)

CC1CCC2C(=O)OC(CN3C(=O)c4ccccc4C3=O)CN2C1c1ccc(Br)cc1 (configuration not stated)
AC50 [19]: 3.16 µM (inconclusive)
AC50 [6]: 3.98 µM (inconclusive)
AC50 [7]: 3.16 µM (inconclusive)

COc1cc(/C=C(/C)[N+](=O)[O-])ccc1OCc1ccccc1Cl
EC50 [20]: 9.08 µM (active)
IC50 [21]: 7.64 µM (active)
EC50 [22]: 8.96 µM (active)
IC50 [23]: 2.45 µM (active)
EC50 [24]: 2.07 µM (active)
EC50 [25]: 8.05 µM (active)
IC50 [26]: 0.727 µM (active)

Cc1ccc(S(=O)(=O)c2c(C)cc(C)nc2Oc2cccc(C(F)(F)F)c2)cc1
EC50 [16]: > 29.9 µM (not active)
EC50 [17]: 5.23 µM (active)
EC50 [27]: 7.06 µM (active)

COC(=O)CN(n1cnnc1)S(=O)(=O)c1ccc(C)cc1
IC50 [8]: > 59.6 µM (not active)
IC50 [9]: 0.351 µM (active)

CCn1cc(C(=O)O)c(=O)c2cc(F)c(N3CCNCC3)cc21 [NORFLOXACIN]
EC50 [18]: > 50 µM (active)
AC50 [28]: 1.33 µM (active)

CN1CCN(c2ccccc2NC(=O)Cc2ccc(Cl)cc2)CC1
IC50 [29]: 36 µM (not active)

COc1ccc(S(=O)(=O)C(C#N)c2nc3ccccc3nc2N2CCCCC2)cc1 (configuration not stated)
EC50 [15]: > 50 µM (not active)

COCCn1c(N/N=C(C)/C=C/c2ccccc2)nc2c1c(=O)[nH]c(=O)n2C
EC50 [14]: > 100 µM (not active)

CCN1CCc2c(C#N)c(NCc3ccccc3)nc(NCCO)c2C1
IC50 [30]: > 50 µM (not active)
IC50 [4]: > 100 µM (inactive)
IC50 [5]: > 100 µM (inactive)
